Data reported in ChEMBL document CHEMBL1201862, “PubChem BioAssay data set” (2004).
Calls of active or inactive are those of the source.

Columns and labels:
[1] = molecular target: T1, Ubiquitin-conjugating enzyme E2 N (Homo sapiens, UniProt P61088); type: functional;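 further: Dose-response confirmation in a TR-FRET assay detecting UBC13-driven polyubiquitin chain formation, inhibition measured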
T1 sequence (P61088 whole entry): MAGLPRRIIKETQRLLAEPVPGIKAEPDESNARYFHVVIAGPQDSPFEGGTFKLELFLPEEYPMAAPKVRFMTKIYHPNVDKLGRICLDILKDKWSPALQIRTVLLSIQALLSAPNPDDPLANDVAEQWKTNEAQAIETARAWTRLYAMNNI

[2] = microbe, parasite or virus in culture; type: functional; details: Mycobacterium tuberculosis
[3] = Luminescence Cell-Based Dose Response HTS to Identify Activators of Luciferase Translation or Activity in H4 […] Cells. [Related pubchem assays: 1829 (Project Summary), 1814 (Primary HTS)]; type: functional
[4] = tested on: H4; test: Luminescence Cell-Based Dose Response HTS to Identify Activators of 5'UTR Stem-Loop Driven Prion Protein mRNA Translation in H4 Neuroglioblastoma Cells. [Related pubchem assays: 1829 (Project Summary), 1814 (Primary HTS)]; type: functional; details: Homo sapiens
[5] = Luminescence Cell-Based Dose Confirmation HTS to Identify Activators of 5'UTR Stem-Loop Driven Alpha-Synuclein mRNA Translation in H4 Neuroglioblastoma Cells. [Related pubchem assays: 1829 (Project Summary), 1814 (Primary HTS)]; type: functional
[6] = tested on: H9c2; test: cells; type: functional, cell-based; details: Rattus norvegicus, H9c2, Myocardium;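 further: confirmatory concentration-response retest of ultra-high-throughput screening hits for modulation of myocardial damage; cell death induced by hydrogen peroxide oxidative stress; compound pretreatment for 60 min then peroxide exposure for 2 h; potency is for protecting the cells against peroxide damage rather than for killing them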
[7] = reduction of Shn3 3'UTR-driven luciferase in osteoblasts – cell-based, Clone20 osteoblasts, firefly luciferase, cherry-picked, dose response (AID 624132); type: functional;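 further: firefly luciferase luminescence from reporter carrying the Shn3 3'UTR in osteoblasts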
[8] = molecular target: T2, Zinc finger protein mex-5 (Caenorhabditis elegans, UniProt Q9XUB2); test: potency of MEX-5 RNA-binding blockers – biochemical, C. elegans, fluorescence polarization, dose response (AID 1960)
T2 sequence (Q9XUB2 whole entry): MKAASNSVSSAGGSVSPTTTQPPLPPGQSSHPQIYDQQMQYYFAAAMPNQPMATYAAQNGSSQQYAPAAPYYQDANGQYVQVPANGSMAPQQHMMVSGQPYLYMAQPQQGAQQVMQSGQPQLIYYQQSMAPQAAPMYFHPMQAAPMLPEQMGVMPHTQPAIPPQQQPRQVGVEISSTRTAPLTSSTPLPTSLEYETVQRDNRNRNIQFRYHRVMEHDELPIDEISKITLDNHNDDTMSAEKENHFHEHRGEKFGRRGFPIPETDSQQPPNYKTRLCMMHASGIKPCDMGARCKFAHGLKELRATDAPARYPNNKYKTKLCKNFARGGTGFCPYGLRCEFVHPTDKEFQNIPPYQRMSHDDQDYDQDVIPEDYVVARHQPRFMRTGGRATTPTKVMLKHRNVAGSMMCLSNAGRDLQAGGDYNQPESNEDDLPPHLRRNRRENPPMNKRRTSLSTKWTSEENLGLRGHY

[9] = molecular target: T3, RNA-binding protein pos-1 (Caenorhabditis elegans, UniProt G5EF15); test: disruptors of C. elegans POS-1 RNA interaction – biochemical, fluorescence polarization, dose response (AID 1964);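 further: purified POS-1 fused to maltose binding protein made in E. coli; potency of compounds blocking POS-1 binding to fluorescent RNA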
T3 sequence (G5EF15 whole entry): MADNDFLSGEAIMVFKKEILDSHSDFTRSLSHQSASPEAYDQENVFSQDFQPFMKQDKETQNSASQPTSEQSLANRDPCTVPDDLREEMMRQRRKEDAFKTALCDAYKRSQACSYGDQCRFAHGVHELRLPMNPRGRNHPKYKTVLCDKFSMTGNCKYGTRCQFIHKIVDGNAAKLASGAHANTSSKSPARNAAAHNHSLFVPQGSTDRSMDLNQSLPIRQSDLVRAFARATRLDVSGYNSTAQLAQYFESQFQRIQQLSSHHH

[10] = tested on: INS1; test: INS-1E survival protection against cytokine death – cell-based, luminescence, retest, dose response (AID 449756); type: functional; details: Rattus norvegicus;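 further: cell death triggered by IL-1 beta plus TNF-alpha plus IFN-gamma mixture; protective hits raise ATP signal compared with cytokine alone wells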
[11] = molecular target: FAD-linked sulfhydryl oxidase ALR (Homo sapiens, UniProt P55789); test: ALR-catalysed DTT oxidation blockers – biochemical, H2O2 detection, luminescence, cherry-pick, dose response (AID 493248)
FAD-linked sulfhydryl oxidase ALR, sequence (P55789 whole entry): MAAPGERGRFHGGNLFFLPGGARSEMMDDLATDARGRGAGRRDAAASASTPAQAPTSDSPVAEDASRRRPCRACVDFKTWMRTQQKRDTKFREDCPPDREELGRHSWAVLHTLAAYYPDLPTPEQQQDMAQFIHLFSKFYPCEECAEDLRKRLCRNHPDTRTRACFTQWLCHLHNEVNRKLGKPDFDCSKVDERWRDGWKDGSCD

[12] = viability of uninfected HEp-2 cells – cell-based, HTS, cytotoxicity control for RSV inhibitor project, dose response (AID 2410); type: functional; details: human respiratory syncytial virus
[13] = molecular target: T4, Cytochrome P450 1A2 (Homo sapiens, UniProt P05177);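 further: PubChem cytochrome P450 panel assay, CYP1A2 panel member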
T4 sequence (P05177 whole entry): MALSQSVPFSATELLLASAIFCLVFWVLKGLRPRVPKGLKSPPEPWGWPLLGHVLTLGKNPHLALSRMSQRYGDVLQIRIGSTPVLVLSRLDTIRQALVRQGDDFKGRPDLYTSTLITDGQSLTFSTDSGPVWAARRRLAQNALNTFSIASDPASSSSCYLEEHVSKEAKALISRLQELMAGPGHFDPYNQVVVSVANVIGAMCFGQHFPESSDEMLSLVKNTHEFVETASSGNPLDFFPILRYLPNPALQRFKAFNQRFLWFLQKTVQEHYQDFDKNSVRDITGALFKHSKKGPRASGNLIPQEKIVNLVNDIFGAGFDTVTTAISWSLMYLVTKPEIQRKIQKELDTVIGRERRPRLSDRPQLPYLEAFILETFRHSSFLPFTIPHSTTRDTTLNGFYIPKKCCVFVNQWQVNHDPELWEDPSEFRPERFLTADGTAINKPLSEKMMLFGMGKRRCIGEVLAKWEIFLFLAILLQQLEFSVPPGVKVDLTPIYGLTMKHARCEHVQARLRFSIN

[14] = blockers of HIV-1 envelope-mediated cell-cell fusion – cherry-pick, dose response (AID 652057); type: functional, cell-based
[15] = HIV-1 AD8 envelope cell-cell fusion blockers – cherry-pick, dose response (AID 652062); type: functional, cell-based;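 further: luciferase signal from cell-cell fusion driven by HIV-1 clade B AD8 Env; potency is for inhibitors of fusion seen as a drop in luminescence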
[16] = cells; type: functional

In the case of Cc1cc(N2CCN(C)CC2)nc2ccc(NC(=S)N3CCN(c4cccc(Cl)c4)CC3)cc12, the IC50 [1] is reported as > 20 µM (inactive).

For COc1ccc(-n2cc(CNCCc3cscn3)c(-c3ccccc3Cl)n2)cc1, the CC50 [2] was > 40 µM (active).

In the case of O=C1N=C(Nc2ccccc2)S/C1=C\c1cccn1-c1ccccc1, the EC50 [3] is reported as 32.5 µM (active), the EC50 [4] is reported as > 120 µM (not active) and the EC50 [5] is reported as > 120 µM (not active).

For Cn1c(=O)c2nc(NN=Cc3cccc(Br)c3)[nH]c2n(C)c1=O, the IC50 [6] was > 79 µM (inactive).

For COc1ccc(C(O)c2nc(-c3cccc(F)c3)cs2)cc1 (stereo unspecified), the AC50 [7] was 41.9 µM (active).

For COC(=O)c1ccccc1-n1c(CCC(=O)O)ccc1-c1ccccc1, the EC50 [8] was > 300 µM (not active) and the EC50 [9] was > 300 µM (not active).

In the case of COc1ccccc1NCC(=O)N1CCN(S(=O)(=O)c2ccccc2)CC1, the AC50 [10] is reported as > 260 µM (inactive).

For CCn1c(C)cc(/C=C2\C(=O)NC(=O)N(c3ccccc3C)C2=O)c1C, the EC50 [8] was > 300 µM (not active) and the EC50 [9] was > 300 µM (not active).

In the case of Cc1ccc(S(=O)(=O)N2CCOCC2)cc1C(=O)Nc1ccc(S(=O)(=O)Nc2nccs2)cc1, the EC50 [8] is reported as > 300 µM (not active) and the EC50 [9] is reported as > 300 µM (not active).

With O=C(NCCCN1CCCC1)c1ccc2c(c1)N(Cc1ccccc1)CCS2 the IC50 [1] was > 20 µM (inactive) and the AC50 [11] was 0.022 µM (active).

With COc1ccc(CCNC(=O)c2cc3sc(Cl)cc3n2C)cc1OC the CC50 [12] was 27.5 µM (active).

In the case of CCC(=O)OC1(C)C(=O)C=C2C=C(CCCC(=O)OC)OC=C2C1=O (stereo unspecified), the EC50 [8] is reported as 22.8 µM (active) and the EC50 [9] is reported as 27.8 µM (active).

With CSc1ccccc1OCc1cc(C(=O)N2CCC(Oc3cccnc3)CC2)no1 the CC50 [2] was > 40 µM (active).

In the case of O=[N+]([O-])c1ccc2c(c1)nc(O)c1ccccc12, the IC50 [6] is reported as > 79 µM (inactive).

With COc1ccc(NC(=O)c2oc3ccc(S(=O)(=O)N4CCOCC4)cc3c2C)cc1 the IC50 [6] was > 79 µM (inactive).

For Nc1[nH]nc(C2CC2)c1N=Nc1ccc(Cl)cc1, the CC50 [2] was > 40 µM (active).

With Clc1ccc2c(c1)C1=C(C(c3ccncc3)O2)C(c2ccc(Br)cc2)n2ncnc2N1 (stereo unspecified) the AC50 [13] was 25.1 µM (inconclusive) and the AC50 [14] was 11.2 µM (active).

In the case of CCOC(=O)c1c(CN2CCN(Cc3ccccc3)CC2)n(C)c2cc(Br)c(OC)cc12, the CC50 [2] is reported as > 40 µM (active).

For Cc1ncc2c(n1)-c1cc(F)ccc1SC2, the CC50 [12] was 40.5 µM (active).

For O=C1c2ccccc2C(=O)N1CCCc1nc(-c2ccncc2)no1, the EC50 [8] was > 300 µM (not active) and the EC50 [9] was > 300 µM (not active).

With Cc1ccc2c(c1)CCCN2C(=O)CCc1nc(O)c2ccccc2n1 the IC50 [6] was > 79 µM (inactive).

With Cc1ccc(S(=O)(=O)C(C#N)c2nc3ccccc3nc2N2CCC(C)CC2)cc1 (stereo unspecified) the EC50 [8] was 24.6 µM (active) and the EC50 [9] was > 300 µM (inconclusive).

With COc1ccccc1NC(=O)c1cc(-c2cc(OC)c(OC)c(OC)c2)nc2ccccc12 the IC50 [6] was > 79 µM (inactive).

In the case of C[C@H]1CN([C@@H](C)CO)C(=O)c2ccccc2-c2ccccc2CO[C@@H]1CN(C)C(=O)Nc1cccc(C(F)(F)F)c1, the AC50 [14] is reported as < 0.26 µM (active) and the AC50 [15] is reported as 19 µM (active).

For CCOC(=O)c1[nH]c(C)c(C(=O)Nc2ccc(C)c(Cl)c2)c1C, the EC50 [3] was 13.3 µM (active), the EC50 [4] was > 120 µM (not active) and the EC50 [5] was > 120 µM (not active).

For COc1ccc(N2CCN(c3ccnc4cc(Cl)ccc34)CC2)cc1, the CC50 [2] was > 40 µM (active).

In the case of Cc1ccc(NC(=O)C2=C(O)CCn3c2nc2ccccc23)cc1, the EC50 [3] is reported as 12.5 µM (active), the EC50 [4] is reported as > 60 µM (not active) and the EC50 [5] is reported as > 120 µM (not active).

In the case of Cc1cc(NC(=O)C2CCCCC2)nc2c1c(=O)oc1ccccc12, the IC50 [6] is reported as 7.59 µM (active).

In the case of CCC(=O)OC1(C)C(=O)C=C2C=C(CCCCNC(=O)OC(C)(C)C)OC=C2C1=O (stereo unspecified), the EC50 [8] is reported as 28.4 µM (active) and the EC50 [9] is reported as 33.5 µM (active).

For O=C(N/N=C/c1ccccn1)c1cccc([N+](=O)[O-])c1, the IC50 [16] was 22.2 µM (active) and the IC50 [6] was > 79 µM (inactive).

In the case of COc1ccccc1CNC(=O)c1ccc2c(=O)n(CCCN3CCCC3=O)c(=S)[nH]c2c1, the IC50 [1] is reported as > 20 µM (inactive).

For Cc1ccc(/N=C/c2c(O)[nH]c3ccccc23)c([N+](=O)[O-])c1, the EC50 [4] was 22.3 µM (inconclusive).

With CC(=O)C(=NNc1ccc2c(c1)OCO2)C(C)=O the EC50 [3] was 27.8 µM (active) and the EC50 [5] was 13.9 µM (active).

With COc1ccc(NC2=C(Cl)C(=O)N(CCc3ccccc3)C2=O)c(OC)c1 the EC50 [3] was 8.34 µM (active), the EC50 [4] was 33.2 µM (active) and the EC50 [5] was 5.35 µM (active).

In the case of CCCCNC(=O)c1cccc(S(=O)(=O)N2CC3(C)CC2CC(C)(C)C3)c1 (stereo unspecified), the CC50 [12] is reported as 26.5 µM (active).

In the case of COC(=O)c1cc(OC)c(OC)cc1NC(=O)c1ccc(C)o1, the IC50 [6] is reported as > 79 µM (inactive).

With Cc1cnc(C(=O)Nc2ccc(OC(F)(F)F)cc2)cn1 the EC50 [3] was 17.5 µM (active), the EC50 [4] was 98.1 µM (active) and the EC50 [5] was 13.9 µM (active).

With COc1ccc(C2C=C(c3ccc(Br)s3)Nc3ncnn32)cc1OC (stereo unspecified) the EC50 [8] was 6.36 µM (inconclusive) and the EC50 [9] was 7.82 µM (active).

In the case of CCn1ccnc1CN(C)Cc1nc(-c2ccc3c(c2)OCO3)no1, the EC50 [3] is reported as 12.5 µM (active), the EC50 [4] is reported as 21.4 µM (active) and the EC50 [5] is reported as 6.38 µM (active).

For CCOC(=O)c1c(N)sc(-c2ccccc2)c1C, the CC50 [12] was 28.5 µM (active).

For Cc1cc(NC(=O)c2cccs2)cc(-c2nc3ncccc3o2)c1O, the IC50 [6] was > 79 µM (inactive).
